The values that follow come from US8815857B2 (Boehringer Ingelheim International GmbH, priority 2011, dated 2014).

SMILES strings stand for the structures. Values after ≈ are worked out from the molar mass of the structure shown. A value given as a limit tells only on which side of the number the result lay.

Data set [1] has as its target T1, Recombinant human soluble guanylate cyclase (sGC), alpha 1 / beta 1 subunits, heme-free (Homo sapiens, UniProt Q02108+Q02153).
T1 construct: histidine tag (C); made in house; host or cells: Sf9 insect cells (baculovirus coinfection)
T1 sequence (Q02108 1-690 partner): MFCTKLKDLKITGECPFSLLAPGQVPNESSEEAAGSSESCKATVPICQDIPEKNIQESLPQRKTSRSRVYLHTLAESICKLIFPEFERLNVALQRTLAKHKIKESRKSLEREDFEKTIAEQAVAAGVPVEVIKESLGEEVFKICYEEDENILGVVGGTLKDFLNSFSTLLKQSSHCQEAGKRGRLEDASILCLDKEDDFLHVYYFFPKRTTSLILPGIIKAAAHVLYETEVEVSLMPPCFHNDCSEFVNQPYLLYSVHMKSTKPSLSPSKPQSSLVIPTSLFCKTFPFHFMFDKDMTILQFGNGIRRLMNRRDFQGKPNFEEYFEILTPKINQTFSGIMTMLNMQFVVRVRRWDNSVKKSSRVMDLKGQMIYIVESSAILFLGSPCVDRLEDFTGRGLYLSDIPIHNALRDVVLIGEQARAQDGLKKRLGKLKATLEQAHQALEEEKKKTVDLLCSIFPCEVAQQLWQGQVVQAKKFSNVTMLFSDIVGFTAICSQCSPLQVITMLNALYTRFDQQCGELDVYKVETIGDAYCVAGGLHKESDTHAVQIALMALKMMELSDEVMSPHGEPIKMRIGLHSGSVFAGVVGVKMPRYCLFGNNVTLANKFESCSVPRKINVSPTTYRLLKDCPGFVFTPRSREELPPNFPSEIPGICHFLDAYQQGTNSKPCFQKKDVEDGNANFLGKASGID
T1 sequence (Q02153 1-619): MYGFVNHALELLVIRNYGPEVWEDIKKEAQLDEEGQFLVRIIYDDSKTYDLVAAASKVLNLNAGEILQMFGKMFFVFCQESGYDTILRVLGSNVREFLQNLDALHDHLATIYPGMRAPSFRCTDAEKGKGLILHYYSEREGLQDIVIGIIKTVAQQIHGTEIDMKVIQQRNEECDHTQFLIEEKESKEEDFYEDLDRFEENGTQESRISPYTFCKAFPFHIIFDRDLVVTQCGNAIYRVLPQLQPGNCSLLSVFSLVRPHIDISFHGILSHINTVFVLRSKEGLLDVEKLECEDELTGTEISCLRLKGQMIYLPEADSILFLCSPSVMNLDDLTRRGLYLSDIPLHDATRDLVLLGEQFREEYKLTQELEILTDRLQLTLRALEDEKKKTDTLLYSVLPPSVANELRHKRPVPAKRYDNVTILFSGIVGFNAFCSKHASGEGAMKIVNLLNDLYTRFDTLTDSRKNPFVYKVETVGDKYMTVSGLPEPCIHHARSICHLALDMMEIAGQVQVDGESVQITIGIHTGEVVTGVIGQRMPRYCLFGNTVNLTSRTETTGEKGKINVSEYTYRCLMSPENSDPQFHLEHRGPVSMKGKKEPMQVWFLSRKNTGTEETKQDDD
The data set is described as follows: Molecular assay: cGMP formation by heme-free recombinant sGC (CisBio cGMP detection kit). Format: biochemical. The conditions noted are these: 300 pM heme-free sGC, 37° C., 60 min, cGMP readout; read-out: EC50 nM, Activity of Compounds in Molecular Assay. A digest of the protocol: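 cGMP generated over 60 min at 37° C (pH 6.8 MOPS buffer, 50 nM GTP, 1.25 mM IBMX, 1% DMSO) by 300 pM heme-free sGC, expressed in Sf9 and heme-stripped with 0.5% Tween 20. HTRF ratios converted to nM cGMP; EC50 fitted from log concentration.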

Data set [2] is described as follows: physchem. The conditions noted are these: kinetic from dmso stock.
The target in data set [3] is T2, human soluble guanylate cyclase alpha 1 and beta 1 subunits (sGC) stably expressed in Chinese hamster ovary cells (Homo sapiens, UniProt Q02108+Q02153).
T2 construct: expressed in transfected cells; host or cells: Chinese hamster ovary cells, stably transfected
T2 sequence (Q02108 1-690 partner): T1 sequence (Q02108 1-690 partner)
T2 sequence (Q02153 1-619): T1 sequence (Q02153 1-619)
The data set is described as follows: sGC cellular activator assay: cGMP in CHO cells expressing human sGC, preincubated with ODQ. It counts as cell-based. The note with it: 40 microM ODQ preincubation, 30 min at room temperature, presence or absence of 50% human serum not given, read-out: EC50 nM, Activity of Compounds in Cellular Assay. A digest of the protocol:
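EC50 values derive from HTRF cGMP measurement after test compounds act for thirty minutes at room temperature, with or without 50% human serum. Before dosing, the sGC-transfected CHO cells spend one hour with the inhibitor ODQ (40 microM) in IBMX- and 0.1% BSA-containing buffer.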

Data set [4] can be described thus: Assessment of solubility: HT solubility in pION buffer, UV spectrophotometry. The conditions noted are these: pION system solution buffer, kinetic from dmso stock, 16-19 h incubation, 1.0% DMSO.
Where [5] appears, read: pH 4.5, pH 4.5, aqueous buffer, Solubility (pH 4.5), pH 4.5 buffer.
The mark [6] stands for this setting: pH 7.4, pH 7.4, aqueous buffer, Solubility (pH 7.4), pH 7.4 buffer.

Take `Cc1ccc(OCc2ccc(CN3CCN(C(=O)C4CC4)CC3)cc2C)c(-c2csc(N3CCC(C(=O)O)CC3)n2)c1` [Compound 198]: the EC50 (in general, the concentration at which the effect is half-maximal) in data set [1] came out at 20 nM. In addition, the solubility – broadly, the dissolved amount per volume that the medium holds – in data set [2] (pH 4.5, aqueous buffer, Solubility (pH 4.5)) was 37 µg/mL (≈ 62.8 µM); in data set [2] (pH 7.4, aqueous buffer, Solubility (pH 7.4)), over 58 µg/mL.

As to `Cc1cc(CN2CCS(=O)(=O)CC2)ccc1COc1c(C)cccc1-c1csc(N2C[C@H]3CC[C@@H](C2)[C@H]3C(=O)O)n1` [Compound 203], the EC50 in data set [1] worked out at 23 nM; in data set [3] it was 68 nM. The solubility in data set [4] (setting [5]) is 3 µg/mL (≈ 5.04 µM); in data set [4] (setting [6]) it was over 59 µg/mL.

As to `Cc1cc(CN2CCS(=O)(=O)CC2)ccc1COc1ccccc1-c1csc(N2CCC(C(=O)O)CC2)n1` [Compound 272], the values for the EC50 in data set [1] and in data set [3] were 120 nM and 110 nM, respectively. For the same molecule, the solubility in data set [4] (setting [5]) was 14 µg/mL (≈ 25.2 µM); in data set [4] (setting [6]) it was over 160 µg/mL.

As to `Cc1ccc(OCc2ccc(C(=O)N3CCCCC3)cc2C)c(-c2csc(N3C[C@H]4C[C@@H](C3)[C@H]4C(=O)O)n2)c1` [Compound 236], the EC50 was determined as 190 nM in data set [1] and 79 nM in data set [3]. Moreover, the solubility was 6.6 µg/mL (≈ 12.1 µM) in data set [4] (setting [5]) and over 54 µg/mL in data set [4] (setting [6]).

For the molecule `Cc1ccc(OCc2ccc(CN3CCS(=O)(=O)CC3)cc2C)c(-c2csc(N3CCC(CC(=O)O)CC3)n2)c1` [Compound 219], the results for the EC50 in data set [1] and in data set [3] were 1000 nM and 300 nM, respectively. In addition, the solubility in data set [4] (setting [5]) was 2.4 µg/mL (≈ 4.11 µM); in data set [4] (setting [6]), 41 µg/mL (≈ 70.2 µM).

With `Cc1ccc(OCc2ccc(CN3CCS(=O)(=O)CC3)cc2C)c(-c2csc(N3CCC4(C(=O)O)CC4C3)n2)c1` (centres unmarked) [Compound 217], the results for the EC50 in data set [1] and in data set [3] were 49 nM and 8.7 nM, respectively. Also, the solubility was found to be 0.95 µg/mL (≈ 1.63 µM) in data set [4] (setting [5]) and 34 µg/mL (≈ 58.4 µM) in data set [4] (setting [6]).
